Key:
[1] = system: MLLr leukemia cell line MV4-11; assay: Cell proliferation assay MV4;11 (CellTiter-Glo, 72 hours); type: cell-based; settings: Homo sapiens; MV4-11 cells, 72 hours, CellTiter-Glo; read-out: MV4; 11 IC50
Method: Compounds were evaluated for its capacity to inhibit the proliferation of the MLLr leukemia cell line MV4-11 that harbors an MLL1-AF4 fusion protein. MV4-11 cells were cultured for 72 hours with limiting dilutions of compounds and viability was measured using CellTiter-Glo.
Compounds were dissolved to obtain as 10 mM solution in DMSO. The stock was diluted 1:5 to the top concentration of 2 mM in 100% DMSO. For IC50 determination, serial 1:3.16 dilutions were prepared in 100% DMSO by diluting 20 μL into 43.5 μL of DMSO for 8 concentrations. Each prepared DMSO solution were further diluted 1:500 in the cell culture media to obtain the 2× dosing solutions. The final concentrations of tested compounds in the cell culture media ranged from 0.632 nM to 2000 nM.
MV4-11 cells were cultured in IMDM with 10% FBS and 1× Penicillin-Streptomycin at 5% CO2 and 37° C. A cell suspension was prepared containing 15,000 cells/ml in the culture medium and 100 μL of this suspension was added per well to a 96-well cell culture plate. Then, 100 μL of 2× dosing media containing test compounds were added bringing the total volume to 200 μL. These cells were cultured for 72 hours at 37° C. and 5% CO2 in a humidified incubator.
After 72 hours, the cultured cells were mixed and 100 μL was transferred to a 96-well black plate. Cell Titer Glo (100 μl) was then added to this plate. The plate was mixed with shaking for 15 mins at RT, the luminescence was then measured using Tecan Spark 20M spectrophotometer. Cell Viability (%) was determined by RLU of test/RLU average vehicle control*100 and % max inhibition was determined by 100−(% cell viability remaining at the top concentration of compound).

hERG = hERG (Homo sapiens, UniProt Q12809); assay: Patch clamp assay (hERG tail currents, whole-cell)
Chain of hERG (Q12809 whole entry): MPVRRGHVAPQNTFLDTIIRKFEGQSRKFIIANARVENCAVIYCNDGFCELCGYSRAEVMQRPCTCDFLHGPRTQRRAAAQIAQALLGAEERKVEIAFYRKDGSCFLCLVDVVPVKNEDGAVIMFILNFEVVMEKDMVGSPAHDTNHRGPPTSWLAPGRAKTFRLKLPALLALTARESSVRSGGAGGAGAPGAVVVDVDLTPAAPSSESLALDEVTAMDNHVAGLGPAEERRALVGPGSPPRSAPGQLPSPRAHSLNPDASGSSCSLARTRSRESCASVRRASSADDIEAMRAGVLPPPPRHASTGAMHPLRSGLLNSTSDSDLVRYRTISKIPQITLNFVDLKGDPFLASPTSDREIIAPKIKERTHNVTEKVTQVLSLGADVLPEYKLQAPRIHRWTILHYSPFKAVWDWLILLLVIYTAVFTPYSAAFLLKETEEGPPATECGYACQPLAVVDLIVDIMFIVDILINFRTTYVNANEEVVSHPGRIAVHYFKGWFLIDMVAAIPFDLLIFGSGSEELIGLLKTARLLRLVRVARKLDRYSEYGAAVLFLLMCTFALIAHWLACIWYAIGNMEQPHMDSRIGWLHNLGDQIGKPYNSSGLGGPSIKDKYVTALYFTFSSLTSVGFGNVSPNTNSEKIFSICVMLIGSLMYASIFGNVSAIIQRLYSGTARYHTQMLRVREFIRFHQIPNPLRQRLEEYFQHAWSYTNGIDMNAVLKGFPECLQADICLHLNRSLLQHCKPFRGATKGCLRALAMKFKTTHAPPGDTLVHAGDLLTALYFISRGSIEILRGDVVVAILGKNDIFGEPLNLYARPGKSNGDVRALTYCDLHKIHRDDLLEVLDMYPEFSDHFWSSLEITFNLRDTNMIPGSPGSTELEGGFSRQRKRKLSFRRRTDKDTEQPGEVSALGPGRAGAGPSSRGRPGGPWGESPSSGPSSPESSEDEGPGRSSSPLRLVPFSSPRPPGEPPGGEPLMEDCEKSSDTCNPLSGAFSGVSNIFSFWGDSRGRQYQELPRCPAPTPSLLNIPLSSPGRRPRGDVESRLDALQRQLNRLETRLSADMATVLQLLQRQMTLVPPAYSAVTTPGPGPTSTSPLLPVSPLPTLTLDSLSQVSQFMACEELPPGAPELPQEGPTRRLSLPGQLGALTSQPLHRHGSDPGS

In the case of `CC(C)N(C(=O)c1cc(F)ccc1Oc1cncnc1N1CC2(CCN(C[C@@H]3CC[C@@H](NS(=O)(=O)C4CCOCC4)CO3)CC2)C1)C(C)C` [Example 79], the IC50 [1] is reported as < 0.1 µM.

With `CC(C)N(C(=O)c1cc(F)ccc1Oc1cncnc1N1CC2(CCN(C[C@@H]3CC[C@@H](NS(=O)(=O)N4CCC[C@H]4C)CO3)CC2)C1)C1CCOC1` (stereo partly drawn) [Example 207, 5-Fluoro-N-isopropyl-2-((4-(7-(((2S,5R)-5-(((R)-2-methylpyrrolidine)-1-sulfonamido)tetrahydro-2H-pyran-2-yl)methyl)-2,7-diazaspiro[3.5]nonan-2-yl)pyrimidin-5-yl)oxy)-N-((S)-tetrahydrofuran-3-yl)benzamide] the IC50 [1] was < 0.1 µM.

`CC(C)N(C(=O)c1cc(F)ccc1Oc1cncnc1N1CC2(CCN(C[C@@H]3CC[C@@H](N[S@](=N)(=O)c4ccccc4)CO3)CC2)C1)C(C)C` (single isomer, unassigned) [Example 230] was tested, and the IC50 [1] was < 0.1 µM.

For `CNS(=O)(=O)N[C@@H]1CC[C@@H](CN2CCC3(CC2)CN(c2ncncc2Oc2ccc(F)cc2C(=O)N(C(C)C)C2CC(F)(F)C2)C3)OC1` [Example 154, N-(3,3-Difluorocyclobutyl)-5-fluoro-N-isopropyl-2-((4-(7-(((2S,5R)-5-((N-methylsulfamoyl)amino)tetrahydro-2H-pyran-2-yl)methyl)-2,7-diazaspiro[3.5]nonan-2-yl)pyrimidin-5-yl)oxy)benzamide], the “hERG % Remaining” value (hERG; 10 μM compound) was “+++ (≥66%)” and the “hERG % Remaining” value (hERG; 30 μM compound) was “++ (233% and ≤66%)”.

`CCN(C(=O)c1cc(F)ccc1Oc1cncnc1N1CC2(CCN(C[C@@H]3CC[C@@H](NS(=O)(=O)c4cccnc4)CO3)CC2)C1)C(C)C` [Example 63, N-Ethyl-5-fluoro-N-isopropyl-2-((4-(7-(((2S,5R)-5-(pyridine-3-sulfonamido)tetrahydro-2H-pyran-2-yl)methyl)-2,7-diazaspiro[3.5]nonan-2-yl)pyrimidin-5-yl)oxy)benzamide] was tested, and the “hERG % Remaining” value (hERG; 10 μM compound) was “+++ (≥66%)” and the “hERG % Remaining” value (hERG; 30 μM compound) was “++ (233% and ≤66%)”.

`CC(C)N(CC(F)F)C(=O)c1cc(F)ccc1Oc1cncnc1N1CC2(CCN(C[C@@H]3CC[C@@H](NS(=O)(=O)N(C)C(C)C)CO3)CC2)C1` [Example 101, N-(2,2-Difluoroethyl)-5-fluoro-N-isopropyl-2-((4-(7-(((2S,5R)-5-((N-isopropyl-N-methylsulfamoyl)amino)tetrahydro-2H-pyran-2-yl)methyl)-2,7-diazaspiro[3.5]nonan-2-yl)pyrimidin-5-yl)oxy)benzamide] was tested, and the “hERG % Remaining” value (hERG; 30 μM compound) was “+ (<33%)”.

With `C[C@@H]1COC[C@H](C)N1C(=O)c1cc(F)ccc1Oc1cncnc1N1CC2(CCN(C[C@@H]3CC[C@@H](NS(=O)(=O)N4CCC4)CO3)CC2)C1` [Example 161, N-((3R,6S)-6-((2-(5-(2-((3R,5S)-3,5-Dimethylmorpholine-4-carbonyl)-4-fluorophenoxy)pyrimidin-4-yl)-2,7-diazaspiro[3.5]nonan-7-yl)methyl)tetrahydro-2H-pyran-3-yl)azetidine-1-sulfonamide] the “hERG % Remaining” value (hERG; 30 μM compound) was “+++ (≥66%)”.

For `CCN(C(=O)c1cc(F)ccc1Oc1cncnc1N1CC2(CCN(C[C@H]3CC[C@H](NS(=O)(=O)CC)CC3)CC2)C1)C(C)C` [SNDX-5613], the “hERG % Remaining” value (hERG; 1 μM compound) was “+++ (≥66%)”, the “hERG % Remaining” value (hERG; 3 μM compound) was “+++ (≥66%)” and the “hERG % Remaining” value (hERG; 10 μM compound) was “++ (233% and ≤66%)”. The “hERG % Remaining” value (hERG; 30 μM compound) was “++ (233% and ≤66%)”, the “hERG % Remaining” value (hERG; 100 μM compound) was “+ (<33%)” and the “hERG IC50 (μM)” value (hERG; hERG stably transfected HEK 293 cells) was “+ (<25 PM)”.

`CCN(C(=O)c1cc(F)ccc1Oc1cncnc1N1CC2(CCN(C[C@@H]3CC[C@@H](NS(=O)(=O)c4ccccc4Cl)CO3)CC2)C1)C(C)C` [Example 59, 2-((4-(7-(((2S,5R)-5-((2-Chlorophenyl)sulfonamido)tetrahydro-2H-pyran-2-yl)methyl)-2,7-diazaspiro[3.5]nonan-2-yl)pyrimidin-5-yl)oxy)-N-ethyl-5-fluoro-N-isopropylbenzamide] was tested, and the “hERG % Remaining” value (hERG; 10 μM compound) was “+ (<33%)” and the “hERG % Remaining” value (hERG; 30 μM compound) was “+ (<33%)”.

For `CC(C)N(C(=O)c1cc(F)ccc1Oc1cncnc1N1CC2(CCN(C[C@@H]3CC[C@@H](NS(=O)(=O)N4CC5(CCOC5)C4)CO3)CC2)C1)C(C)C` [Example 223, 2-((4-(7-(((2S,5R)-5-(6-Oxa-2-azaspiro[3.4]octane-2-sulfonamido)tetrahydro-2H-pyran-2-yl)methyl)-2,7-diazaspiro[3.5]nonan-2-yl)pyrimidin-5-yl)oxy)-5-fluoro-N,N-diisopropylbenzamide], the “hERG % Remaining” value (hERG; 30 μM compound) was “+++ (≥66%)”.

For `CC(C)N(CC(F)F)C(=O)c1cc(F)ccc1Oc1cncnc1N1CC2(CCN(C[C@@H]3CC[C@@H](NS(=O)(=O)N(C)CCO)CO3)CC2)C1` [Example 239, N-(2,2-difluoroethyl)-5-fluoro-2-((4-(7-(((2S,5R)-5-((N-(2-hydroxyethyl)-N-methylsulfamoyl)amino)tetrahydro-2H-pyran-2-yl)methyl)-2,7-diazaspiro[3.5]nonan-2-yl)pyrimidin-5-yl)oxy)-N-isopropylbenzamide], the “hERG % Remaining” value (hERG; 30 μM compound) was “+++ (≥66%)”.

For `CC(C)N(CC(F)F)C(=O)c1cc(F)ccc1Oc1cncnc1N1CC2(CCN(C[C@@H]3CC[C@@H](NS(=O)(=O)N4CCOCC4)CO3)CC2)C1` [Example 94, N-(2,2-Difluoroethyl)-5-fluoro-N-isopropyl-2-((4-(7-(((2S,5R)-5-(morpholine-4-sulfonamido)tetrahydro-2H-pyran-2-yl)methyl)-2,7-diazaspiro[3.5]nonan-2-yl)pyrimidin-5-yl)oxy)benzamide], the “hERG % Remaining” value (hERG; 10 μM compound) was “+++ (≥66%)” and the “hERG % Remaining” value (hERG; 30 μM compound) was “++ (233% and ≤66%)”.

In the case of `CCN(C(=O)c1cc(F)ccc1Oc1cncnc1N1CC2(CCN(C[C@@H]3CC[C@@H](NS(=O)(=O)NC4CC4)CO3)CC2)C1)C(C)C` [Example 142, 2-((4-(7-(((2S,5R)-5-((N-Cyclopropylsulfamoyl)amino)tetrahydro-2H-pyran-2-yl)methyl)-2,7-diazaspiro[3.5]nonan-2-yl)pyrimidin-5-yl)oxy)-N-ethyl-5-fluoro-N-isopropylbenzamide], the “hERG % Remaining” value (hERG; 30 μM compound) is reported as “++ (233% and ≤66%)”.

`CC(C)N(CC(F)F)C(=O)c1cc(F)ccc1Oc1nncnc1N1CC2(CCN(C[C@@H]3CC[C@@H](NS(=O)(=O)N4CCC4)CO3)CC2)C1` [Example 189, 2-((5-(7-(((2S,5R)-5-(Azetidine-1-sulfonamido)tetrahydro-2H-pyran-2-yl)methyl)-2,7-diazaspiro[3.5]nonan-2-yl)-1,2,4-triazin-6-yl)oxy)-N-(2,2-difluoroethyl)-5-fluoro-N-isopropylbenzamide] was tested, and the “hERG % Remaining” value (hERG; 30 μM compound) was “+++ (≥66%)”.

For `CC(C)N(C(=O)c1cc(F)ccc1Oc1cncnc1N1CC2(CCN(C[C@@H]3CC[C@@H](NS(=O)(=O)N(C)C(C)C)CO3)CC2)C1)C(C)C` [Example 89, 5-Fluoro-N,N-diisopropyl-2-((4-(7-(((2S,5R)-5-((N-isopropyl-N-methylsulfamoyl)amino)tetrahydro-2H-pyran-2-yl)methyl)-2,7-diazaspiro[3.5]nonan-2-yl)pyrimidin-5-yl)oxy)benzamide], the “hERG % Remaining” value (hERG; 30 μM compound) was “++ (233% and ≤66%)”.

For `CC(C)N(CCC#N)C(=O)c1cc(F)ccc1Oc1cncnc1N1CC2(CCN(C[C@@H]3CC[C@@H](NS(=O)(=O)c4ccccc4)CO3)CC2)C1` [Example 136, N-(2-Cyanoethyl)-5-fluoro-N-isopropyl-2-((4-(7-(((2S,5R)-5-(phenylsulfonamido)tetrahydro-2H-pyran-2-yl)methyl)-2,7-diazaspiro[3.5]nonan-2-yl)pyrimidin-5-yl)oxy)benzamide], the “hERG % Remaining” value (hERG; 10 μM compound) was “+++ (≥66%)” and the “hERG % Remaining” value (hERG; 30 μM compound) was “+ (<33%)”.

In the case of `C[C@@H]1COC[C@@H](C)N1C(=O)c1cc(F)ccc1Oc1cncnc1N1CC2(CCN(C[C@@H]3CC[C@@H](NS(=O)(=O)c4ccccc4)CO3)CC2)C1` [Example 120, N-((3R,6S)-6-((2-(5-(2-((3R,5R)-3,5-Dimethylmorpholine-4-carbonyl)-4-fluorophenoxy)pyrimidin-4-yl)-2,7-diazaspiro[3.5]nonan-7-yl)methyl)tetrahydro-2H-pyran-3-yl)benzenesulfonamide], the “hERG % Remaining” value (hERG; 10 μM compound) is reported as “+++ (≥66%)” and the “hERG % Remaining” value (hERG; 30 μM compound) is reported as “++ (233% and ≤66%)”.

With `CC(C)N(C(=O)c1cc(F)ccc1Oc1cncnc1N1CC2(CCN(C[C@@H]3CC[C@@H](NS(=O)(=O)N4CCC4)CO3)CC2)C1)[C@H]1CCOC1` [Example 134, 2-((4-(7-(((2S,5R)-5-(Azetidine-1-sulfonamido)tetrahydro-2H-pyran-2-yl)methyl)-2,7-diazaspiro[3.5]nonan-2-yl)pyrimidin-5-yl)oxy)-5-fluoro-N-isopropyl-N-((S)-tetrahydrofuran-3-yl)benzamide] the “hERG % Remaining” value (hERG; 30 μM compound) was “+++ (≥66%)”.

For `CCN(C(=O)c1cc(F)ccc1Oc1cncnc1N1CC2(CCN(C[C@@H]3CC[C@@H](NS(=O)(=O)c4ccccc4OC)CO3)CC2)C1)C(C)C` [Example 65, N-Ethyl-5-fluoro-N-isopropyl-2-((4-(7-(((2S,5R)-5-((2-methoxyphenyl)sulfonamido)tetrahydro-2H-pyran-2-yl)methyl)-2,7-diazaspiro[3.5]nonan-2-yl)pyrimidin-5-yl)oxy)benzamide], the “hERG % Remaining” value (hERG; 10 μM compound) was “++ (233% and ≤66%)” and the “hERG % Remaining” value (hERG; 30 μM compound) was “+ (<33%)”.
